Test results: patent US20030087830A1, “Low molecular weight components of cartilage, complexes of metals with amino acids, DI-peptides and analogs thereof; processes for preparation and therapeutic uses thereof” (priority 2001, published 2003)
Blank lines part the entries; values can stand above or below the compound they belong to.

Columns and labels:
Endothelial cells [1] = test: Endothelial cell tubule formation assay (tubulogenesis); assay type: cell-based; set-up: key to Tubulogenesis: 0: Numerous capillary-like tube forming pentagonal network; +: Decrease of capillary-like tubes; ++: Dramatic decrease of capillary-like tubes; +++: Absence of capillary-like tubes
Experimental: The endothelial cell tubule formation assay is a semi-quantitative assay that was performed to determine the ability of test samples to inhibit this multi-step process, which involves cell adhesion, migration, differentiation and growth, using a commercial kit (Chemicon). Briefly, endothelial cells were seeded on solid gel of Ecmatrix™ (Chemicon), basement proteins prepared from the Engelbreth Holm-Swarm (EHS) mouse tumor in microplate in a E-99 media (Sigma) supplemented with 5% FBS and VEGF (50 ng/ml) in the presence or absence of the test sample. Cells were incubated for a period of 24 hours at 37° C. Pictures were taken on the entire tissue culture dish using a binocular microscope for further evaluation.

[2] = test system: bFGF-stimulated blood vessel formation in Matrigel; test: Matrigel in vivo angiogenesis assay; set-up: species or system C57B1/6 mice; details: intra-peritoneal daily 10 days
Experimental: The Matrigel™ in vivo assay was performed to determine the ability of test samples to inhibit blood vessel formation (antiangiogenic activity) and to establish their bioavailability in vivo.
Briefly, liquid Matrigel™ (Becton Dickinson, Bedford, Mass.) was maintained at 4° C. and mixed thoroughly for at least 3 hours with 1,500 ng/ml basic fibroblast growth factor (bFGF) (R&D Systems, Minneapolis, Minn.) used as the primary angiogenic stimulus. The mixture (0.5 ml) was injected subcutaneously into the ventral midline of C57B1/6 mice, and treatment with different test samples or saline solution was initiated the same day. Additional animals were also injected with Matrigel™ containing no bFGF to serve as baseline controls. The animals were treated daily for a 10 day period (intra-peritonealy, 0.2 ml of each dose). At day 11, animals were injected with FITC-dextran 20 min prior to euthanizing treated mice. Matrigel™ gels were removed along with underlying peritoneum and prepared for FITC-dextran detection by fluorimetry. The concentration of FITC-dextran in the gels was calculated from a known concentration of FITC-dextran using a standard curve. The FITC-dextran content of the gels from compound-treated animals and controls was expressed as a percent of the positive bFGF-treated controls after the baseline control of FITC-dextran levels were subtracted from all groups.

Endothelial cells [3] = test: Endothelial cell migration assay (VEGF, modified Boyden chamber); assay type: cell-based
Experimental: The endothelial cell migration assay was performed to determine the ability of test samples to inhibit the chemotaxic activity of vascular endothelial growth factor (VEGF;R/D System, MN) using a modified Boyden chamber (Transwell™, Corning/Costar). Briefly, polyvinylidene difluoride filters (PVDF) were coated with Pronectin F (Biosources, CA), a constituent of basement membrane barrier. Boyden chambers were assembled by adding VEGF to the culture media in the lower chamber (chemoattractant). Endothelial cells suspended in cultured media in the presence or the absence of the test samples were added to the upper chamber. The chambers were then incubated for a period of 4.5 hours at 37° C. At the end of the incubation period, the cells from both side of the PVDF membrane were fixed with 3.7% formaldehyde. Cells from the upper surface of the membrane were mechanically removed, and the cells remaining on the underside of the membrane were stained with crystal violet (0.5%; Sigma). Cells were then carefully rinsed and the dye fixed to the cells was quantified with a microplate reader ([…]) after its solubilization with a solution of 50% citric acid (0.1M) in water and 50% ethanol.

[4] = test system: Endothelial cells (HUVEC, BAEC); test: Endothelial cell proliferation; assay type: cell-based, human / bovine; details: for EC50: 48 hours, copper equivalent, NA = less than 50% at 1.25 mM copper equivalent, read-out: EC proliferation (EC50 mM)
Experimental: Endothelial and tumor cell proliferation assays were performed to determine the ability of test samples to inhibit endothelial cell proliferation (antiangiogenic activity), normal cell proliferation,and tumor cell proliferation.
Endothelial cells (Human umbilical vein endothelial cells (HUVEC), bovine aortic endothelial cells (BAEC)), skeletal muscle cells, human dermal fibroblasts (all from Clonetics, Walkersville, Md.) were respectively maintained in EBM-2, MDEM, SKGM and FGFM-2 complete media according to manufacturer's instructions. Tumor rat glioblastoma cell line (C6) was maintained in DMEM (Sigma, Oaksville, Ontario) supplemented with 10% fetal calf serum (FCS) and antibiotics in 5% CO2. Briefly, cells seeded in 96-well sterile tissue culture dishes were treated with increasing concentrations of different test samples for a period of 48 hours at 37° C. Cell number was then evaluated by a calorimetric assay using the cell proliferation reagent tetrazolium salt and the fluorimetric assay using DNA dye (Hoescht) according to the procedure established by the manufacturer (Boehringer Mannhein). The conversion of these tetrazolium salts into formazan occurs only in metabolically active cells. The percentage of cell inhibition was determined by comparison to untreated cells.
(§1) According to the endothelial cell proliferation assay, the relative effectiveness of two compounds is compared by reference to the EC50 thereof. The EC50 is the concentration of compound at which the number of endothelial cells is reduced by 50% as compared to control. The efficacy of the test samples in EVT is established by the percent of eggs with altered angiogenesis at a given inhibitor dose of 0.6 mg of copper equivalent (see FIG. 6 for examples). A comparison of the antiangiogenic activity of the compounds of the present invention with divalent metal salts (CuCl2, MgCl2, ZnCl2, CoCl2) and uncoupled alpha-amino acids, alpha-imino acids, dipeptides, and nitrogenated molecules comprising a carboxylic acid group, such as creatine, is provided to illustrate that the formation of the amino acid-copper complex gives rise to complexes having antiangiogenic activity.

[5] = test system: blood vessel formation in the vitelline membrane of chick embryo; test: Embryonic Vascularization Test (EVT); assay type: in vivo; details: for EVT (% of inhibition): activity at 0.6 mg equivalent Copper; for EVT activity (in words): in vivo
Experimental: The Embryonic Vascularization Test (EVT) was performed to determine the ability of test samples to inhibit the formation of new blood vessels (antiangiogenic activity).
The normal development of a chick embryo involves the formation of an external vascular system located in the vitelline membrane which carries nutrients from the vitellus (yolk) to the developing embryo. When placed onto the vitelline membrane, antiangiogenic substances can inhibit the blood vessel formation that occurs in the vitelline membrane. Briefly, methylcellulose discs (an inert solid and transparent matrix) containing different test samples were placed on the external border of the vascular perimeter of the vitelline membrane, where the angiogenic process occurs. Vascularization was assessed 24 hours after disc deposition, and results were expressed as the percent of embryos in which blood vessel formation was affected. The blood vessel formation was considered affected when its growing path was either deviated, or diminished or when there was no growth observed beyond the disc as compared to the negative control. The results are expressed as 0, +, and ++ where 0 is for a lower response than 25 percent of the eggs; + is for a response between 25 and 50 percent; and ++ is for an antiangiogenic response observed in more than 50 percent of the eggs.
as §1

[6] = Affinity of the amino acid with copper; assay type: physicochemical
[7] = 2.5 mM free (not complexed) ligand

Compound: [Cl][Cu][Cl] [CuCl2, copper chloride, reference compound]
Tubulogenesis activity (in words) (Endothelial cells [1]): did not show any activity
Tubulogenesis (Endothelial cells [1]; 1.25 mM): 0
Matrigel in vivo % inhibition ([2]; 7.0 mg/Kg equivalent copper): 24.2%
Cell migration activity (in words) (Endothelial cells [3]): did not show any activity
Cell Migration (% inhibition) (Endothelial cells [3]; 1.25 mM): 6%

Compound: D-Asp:Cu:D-Asp [Compound 14]
Endothelial cell proliferation activity (in words) [4]: active
EC50 [4]: 0.37 mM

Compound: Gly:Cu:L-Glu [Compound 24]
EC50 [4]: 0.33 mM

Affinity of the AA with Cooper [6]: 14.9
Compound: N=C(N)NCCC[C@H](N)C(=O)[O-].N=C(N)NCCC[C@H](N)C(=O)[O-].[Cu+2] [Compound 8, L-Arg:Cu:L-Arg]
EC50 [4]: 0.32 mM
EVT (% of inhibition) [5]: + (+ between 25-50% of inhibition)

Compound: C[C@@H](O)[C@H](N)C(=O)O [Free Thr, threonine, reference compound]
Tubulogenesis (Endothelial cells [1]; [7]): 0

Compound: Gly:Cu:L-Thr [Compound 23]
EC50 [4]: 0.48 mM

Compound: L-Asp:Cu:L-Glu [Compound 26]
EC50 [4]: 0.25 mM

Compound: [Cl-].[Cl-].[Zn+2] [Zn++, reference compound]
EC50 [4]: 0.19 mM

Compound: L-Ala:Cu:Gly [Compound 18]
EC50 [4]: 0.29 mM

Compound: Gly:Cu:L-Asp [Compound 22]
EC50 [4]: 0.41 mM

Compound: L-AIa:Cu:L-Asp [Compound 21]
EC50 [4]: 0.32 mM

Compound: C[C@@H](O)[C@H](N)C(=O)[O-].N[C@@H](CC(=O)O)C(=O)[O-].[Cu+2] [Compound 25, L-Asp:Cu:L-Thr]
EC50 [4]: 0.29 mM

Compound: N[C@@H](Cc1c[nH]cn1)C(=O)O [Free His, histidine, reference compound]
Tubulogenesis (Endothelial cells [1]; [7]): 0

Affinity of the AA with Cooper [6]: 17.6
Compound: O=C([O-])[C@@H]1CCCN1.O=C([O-])[C@@H]1CCCN1.[Cu+2] [Compound 28, L-Pro:Cu:L-Pro]
Endothelial cell proliferation activity (in words) [4]: active complex
EC50 [4]: 0.28 mM

Compound: CC(O)C(N)C(=O)[O-].CC(O)C(N)C(=O)[O-].[Cu+2] [Compound 16, D-Thr:Cu:D-Thr]
Endothelial cell proliferation activity (in words) [4]: active
EC50 [4]: 0.3 mM
EVT activity (in words) [5]: active

Compound: L-Ala:Cu:L-Thr [Compound 19]
EC50 [4]: 0.36 mM

Affinity of the AA with Cooper [6]: 16.0
Compound: NCC(=O)[O-].NCC(=O)[O-].[Cu+2] [Compound 1, Gly:Cu:GIy]
EC50 [4]: 0.27 mM
EVT (% of inhibition) [5]: ++ (++ more than 50% of inhibition)

Compound: L-Glu:Cu:L-Thr [Compound 27]
EC50 [4]: 0.4 mM

Compound: L-Glu:Cu:L-Glu [Compound 7]
EC50 [4]: 0.35 mM
EVT (% of inhibition) [5]: ++ (++ more than 50% of inhibition)
Matrigel in vivo % inhibition ([2]; 1.4 mg/Kg equivalent copper): 42.6%
Matrigel in vivo % inhibition ([2]; 7.0 mg/Kg equivalent copper): 71.2%

Affinity of the AA with Cooper [6]: 15.5
Compound: NC(=O)CC[C@H](N)C(=O)[O-].NC(=O)CC[C@H](N)C(=O)[O-].[Cu+2] [Compound 11, L-Gln:Cu:L-Gln]
EC50 [4]: 0.76 mM
EVT (% of inhibition) [5]: 0 (0 non-active (less than 25% of inhibition))

Compound: C[C@H](N)C(=O)O.N[C@@H](CCC(=O)[O-])C(=O)[O-].[Cu+2] [Compound 20, L-Ala:Cu:L-Glu]
EC50 [4]: 0.28 mM

Affinity of the AA with Cooper [6]: 14.4
Compound: NCCCC[C@H](N)C(=O)[O-].NCCCC[C@H](N)C(=O)[O-].[Cu+2] [Compound 9, L-Lys:Cu:L-Lys]
EC50 [4]: 0.35 mM
EVT (% of inhibition) [5]: ++ (++ more than 50% of inhibition)

Compound: [Cl-].[Cl-].[Co+2] [Co++, reference compound]
EC50 [4]: 0.27 mM

Compound: (Creatine)2-Cu [Compound 34]
Endothelial cell proliferation activity (in words) [4]: excellent activity
EC50 [4]: 0.28 mM

Compound: L-Asp-Zn-L-Asp [Compound 32]
EC50 [4]: 0.18 mM

Affinity of the AA with Cooper [6]: 15.2
Compound: CC(C)C(N)C(=O)[O-].CC(C)C(N)C(=O)[O-].[Cu+2] [Compound 4, L-Val:Cu:L-Val]
EC50 [4]: 0.35 mM
EVT (% of inhibition) [5]: + (+ between 25-50% of inhibition)

Affinity of the AA with Cooper [6]: 15.4
Compound: N[C@@H](CO)C(=O)[O-].N[C@@H](CO)C(=O)[O-].[Cu+2] [Compound 3, L-Ser:Cu:L-Ser]
EC50 [4]: 0.34 mM
EVT (% of inhibition) [5]: 0 (0 non-active (less than 25% of inhibition))
EVT activity (in words) [5]: inactive

Compound: N[C@@H](CC(=O)O)C(=O)O [Free Asp, aspartic acid, reference compound]
Tubulogenesis (Endothelial cells [1]; [7]): 0

Compound: L-Asp-Co-L-Asp [Compound 30]
EC50 [4]: 0.27 mM

Compound: CC(N)C(=O)[O-].CC(N)C(=O)[O-].[Cu+2] [Compound 13, D-Ala:Cu:D-Ala]
Endothelial cell proliferation activity (in words) [4]: active
EC50 [4]: 0.44 mM

Compound: N[C@H](Cc1c[nH]cn1)C(=O)[O-].N[C@H](Cc1c[nH]cn1)C(=O)[O-].[Cu+2] [Compound 17, D-His:Cu:D-His]
Endothelial cell proliferation activity (in words) [4]: inactive
EVT activity (in words) [5]: inactive

Affinity of the AA with Cooper [6]: 16.6
Compound: CC[C@H](C)[C@H](N)C(=O)[O-].CC[C@H](C)[C@H](N)C(=O)[O-].[Cu+2] [Compound 12, L-Ile:Cu:L-IIe]
EC50 [4]: 0.48 mM

Compound: C[C@H](N)C(=O)[O-].C[C@H](N)C(=O)[O-].[Cu+2] [Compound 2, L-Ala:Cu:L-Ala]
EC50 [4]: 0.28 mM
EVT (% of inhibition) [5]: ++ (++ more than 50% of inhibition)
Affinity of the AA with Cooper [6]: 15.9

Compound: D-Glu:Cu:D-GIu [Compound 15]
Endothelial cell proliferation activity (in words) [4]: active
EC50 [4]: 0.35 mM
